Results as given in ChEMBL document CHEMBL1139105, “1,2,3-Thiadiazole substituted pyrazolones as potent KDR/VEGFR-2 kinase inhibitors” (Bioorg Med Chem Lett, 2007).

Tests used:
[1] = (§1) Oral bioavailability in rat at 5 mg/kg; format: ADME, organism-based; settings: in vivo
[2] = (§2) AUC in rat at 1 mg/kg, iv; format: ADME, organism-based, Plasma; set-up: dose 1 mg/kg, route intravenous; settings: plasma
[3] = (§3) AUC in rat at 5 mg/kg, po; format: ADME, organism-based, Plasma; set-up: dose 5 mg/kg, route oral; settings: plasma
[4] = Half life in rat at 1 mg/kg, iv; format: ADME, organism-based; set-up: dose 1 mg/kg, route intravenous; settings: in vivo
[5] = Half life in rat at 5 mg/kg, po; format: ADME, organism-based; set-up: dose 5 mg/kg, route oral; settings: in vivo
[6] = Volume of distribution in rat at 1 mg/kg, iv; format: ADME, organism-based; set-up: dose 1 mg/kg, route intravenous; settings: in vivo, read-out: Vdss
[7] = Clearance in rat at 1 mg/kg, iv; format: ADME, organism-based; set-up: dose 1 mg/kg, route intravenous; settings: in vivo
[8] = Cmax in rat at 5 mg/kg, po; format: ADME, organism-based; set-up: dose 5 mg/kg, route oral; settings: in vivo
[9] = molecular target: Vascular endothelial growth factor receptor 1 (Homo sapiens, UniProt P17948); experiment: Inhibition of VEGFR1
[10] = molecular target: Vascular endothelial growth factor receptor 3 (Homo sapiens, UniProt P35916); experiment: Inhibition of VEGFR3
[11] = molecular target: Proto-oncogene tyrosine-protein kinase Src (Homo sapiens, UniProt P12931); experiment: Inhibition of SRC
Angiopoietin-1 receptor = Angiopoietin-1 receptor (Homo sapiens, UniProt Q02763); experiment: Inhibition of Tie2
[12] = molecular target: High affinity nerve growth factor receptor (Homo sapiens, UniProt P04629); experiment: Inhibition of TRK A
[13] = molecular target: Vascular endothelial growth factor receptor 2 (Homo sapiens, UniProt P35968); experiment: Inhibition of human cytoplasmic VEGFR2 expressed in baculovirus after 15 mins by time resolved fluorescence assay
Rattus norvegicus [14] = experiment: as §1; format: ADME, organism-based; settings: in vivo
Rattus norvegicus [15] = experiment: as §2; format: ADME, organism-based, Plasma; set-up: dose 1 mg/kg, route intravenous; settings: in vivo
Rattus norvegicus [16] = experiment: as §3; format: ADME, organism-based, Plasma; set-up: dose 5 mg/kg, route oral; settings: in vivo

Sequence of Vascular endothelial growth factor receptor 2 (P35968 whole entry): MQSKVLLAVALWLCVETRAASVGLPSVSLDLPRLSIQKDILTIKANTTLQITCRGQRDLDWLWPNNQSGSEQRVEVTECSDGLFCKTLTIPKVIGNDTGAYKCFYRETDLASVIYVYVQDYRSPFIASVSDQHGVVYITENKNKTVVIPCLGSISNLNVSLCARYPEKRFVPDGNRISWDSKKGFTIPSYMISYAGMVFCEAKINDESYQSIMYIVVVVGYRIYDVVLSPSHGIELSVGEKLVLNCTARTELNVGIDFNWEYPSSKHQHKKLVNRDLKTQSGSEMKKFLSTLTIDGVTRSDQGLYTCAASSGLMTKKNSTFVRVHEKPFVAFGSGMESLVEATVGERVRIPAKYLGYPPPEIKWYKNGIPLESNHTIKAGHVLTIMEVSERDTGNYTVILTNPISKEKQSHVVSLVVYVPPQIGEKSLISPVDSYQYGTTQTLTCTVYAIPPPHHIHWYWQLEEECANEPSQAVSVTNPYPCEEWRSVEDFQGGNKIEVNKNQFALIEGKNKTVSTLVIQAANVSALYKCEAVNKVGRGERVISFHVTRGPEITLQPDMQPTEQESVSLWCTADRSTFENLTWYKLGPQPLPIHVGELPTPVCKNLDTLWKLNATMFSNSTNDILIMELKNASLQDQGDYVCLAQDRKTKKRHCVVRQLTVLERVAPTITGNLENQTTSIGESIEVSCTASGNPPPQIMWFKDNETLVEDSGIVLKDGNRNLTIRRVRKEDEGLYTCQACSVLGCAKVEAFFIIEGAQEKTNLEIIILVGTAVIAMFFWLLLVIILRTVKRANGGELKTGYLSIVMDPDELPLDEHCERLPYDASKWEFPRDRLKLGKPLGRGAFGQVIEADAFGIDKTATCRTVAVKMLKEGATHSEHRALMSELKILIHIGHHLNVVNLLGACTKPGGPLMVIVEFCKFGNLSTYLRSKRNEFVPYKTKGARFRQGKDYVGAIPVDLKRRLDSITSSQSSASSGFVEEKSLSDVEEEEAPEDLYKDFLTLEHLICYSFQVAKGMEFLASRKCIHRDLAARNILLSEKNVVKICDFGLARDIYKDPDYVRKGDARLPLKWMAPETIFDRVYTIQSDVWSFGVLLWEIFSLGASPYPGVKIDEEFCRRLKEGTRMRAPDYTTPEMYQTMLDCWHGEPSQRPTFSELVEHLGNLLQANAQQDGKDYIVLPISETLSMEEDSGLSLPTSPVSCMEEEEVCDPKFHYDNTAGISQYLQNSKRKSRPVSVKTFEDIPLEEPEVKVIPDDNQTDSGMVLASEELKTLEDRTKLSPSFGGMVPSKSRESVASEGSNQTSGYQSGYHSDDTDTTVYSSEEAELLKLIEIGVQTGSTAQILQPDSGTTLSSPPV
Sequence of High affinity nerve growth factor receptor (P04629 whole entry): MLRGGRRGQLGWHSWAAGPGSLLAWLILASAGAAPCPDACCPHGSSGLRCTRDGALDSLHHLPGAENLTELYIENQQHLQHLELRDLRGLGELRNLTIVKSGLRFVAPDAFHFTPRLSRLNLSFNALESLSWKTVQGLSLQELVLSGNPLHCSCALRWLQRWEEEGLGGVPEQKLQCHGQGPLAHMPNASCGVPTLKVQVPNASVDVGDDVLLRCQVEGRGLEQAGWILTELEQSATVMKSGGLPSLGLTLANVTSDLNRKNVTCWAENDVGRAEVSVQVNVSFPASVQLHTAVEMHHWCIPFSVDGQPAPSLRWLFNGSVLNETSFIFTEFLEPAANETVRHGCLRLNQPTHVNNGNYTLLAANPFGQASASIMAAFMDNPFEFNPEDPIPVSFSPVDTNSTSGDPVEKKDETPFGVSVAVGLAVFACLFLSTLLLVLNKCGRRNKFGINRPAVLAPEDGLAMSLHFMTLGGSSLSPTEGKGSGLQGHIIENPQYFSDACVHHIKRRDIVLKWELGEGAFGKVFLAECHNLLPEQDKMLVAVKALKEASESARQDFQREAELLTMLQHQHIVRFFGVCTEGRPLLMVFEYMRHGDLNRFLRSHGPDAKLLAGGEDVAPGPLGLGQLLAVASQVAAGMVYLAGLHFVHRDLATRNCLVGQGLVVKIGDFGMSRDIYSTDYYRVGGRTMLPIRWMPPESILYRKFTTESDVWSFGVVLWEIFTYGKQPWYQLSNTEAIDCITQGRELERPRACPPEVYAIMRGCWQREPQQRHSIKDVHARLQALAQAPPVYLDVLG
Sequence of Angiopoietin-1 receptor (Q02763 whole entry): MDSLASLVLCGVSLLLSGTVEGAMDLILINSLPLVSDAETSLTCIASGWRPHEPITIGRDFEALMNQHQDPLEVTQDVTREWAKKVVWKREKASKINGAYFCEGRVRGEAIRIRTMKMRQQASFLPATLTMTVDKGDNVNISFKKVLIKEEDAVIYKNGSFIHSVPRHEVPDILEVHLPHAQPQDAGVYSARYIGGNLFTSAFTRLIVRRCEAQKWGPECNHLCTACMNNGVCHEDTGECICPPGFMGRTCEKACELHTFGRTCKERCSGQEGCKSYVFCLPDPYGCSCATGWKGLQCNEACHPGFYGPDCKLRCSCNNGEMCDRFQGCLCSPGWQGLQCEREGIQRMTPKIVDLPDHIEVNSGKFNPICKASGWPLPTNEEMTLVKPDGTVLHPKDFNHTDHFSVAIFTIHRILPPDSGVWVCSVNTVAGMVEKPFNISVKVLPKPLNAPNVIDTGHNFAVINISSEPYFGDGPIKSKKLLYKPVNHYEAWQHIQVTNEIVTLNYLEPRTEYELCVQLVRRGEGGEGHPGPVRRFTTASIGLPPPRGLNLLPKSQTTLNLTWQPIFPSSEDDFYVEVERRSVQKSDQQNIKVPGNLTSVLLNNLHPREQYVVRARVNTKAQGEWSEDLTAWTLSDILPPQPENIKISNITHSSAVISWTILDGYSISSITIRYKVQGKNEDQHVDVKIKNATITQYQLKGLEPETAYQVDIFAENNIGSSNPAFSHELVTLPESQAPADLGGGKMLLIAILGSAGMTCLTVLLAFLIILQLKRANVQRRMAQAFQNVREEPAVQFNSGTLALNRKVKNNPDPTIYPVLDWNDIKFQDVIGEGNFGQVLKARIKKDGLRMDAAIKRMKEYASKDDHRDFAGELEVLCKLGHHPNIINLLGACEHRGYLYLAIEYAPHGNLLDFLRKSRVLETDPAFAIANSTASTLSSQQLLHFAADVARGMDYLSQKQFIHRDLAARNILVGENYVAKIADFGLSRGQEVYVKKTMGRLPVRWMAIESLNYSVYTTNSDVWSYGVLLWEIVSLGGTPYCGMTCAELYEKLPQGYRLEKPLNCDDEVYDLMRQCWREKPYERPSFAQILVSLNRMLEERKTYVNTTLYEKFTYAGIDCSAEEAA
Sequence of Vascular endothelial growth factor receptor 1 (P17948 whole entry): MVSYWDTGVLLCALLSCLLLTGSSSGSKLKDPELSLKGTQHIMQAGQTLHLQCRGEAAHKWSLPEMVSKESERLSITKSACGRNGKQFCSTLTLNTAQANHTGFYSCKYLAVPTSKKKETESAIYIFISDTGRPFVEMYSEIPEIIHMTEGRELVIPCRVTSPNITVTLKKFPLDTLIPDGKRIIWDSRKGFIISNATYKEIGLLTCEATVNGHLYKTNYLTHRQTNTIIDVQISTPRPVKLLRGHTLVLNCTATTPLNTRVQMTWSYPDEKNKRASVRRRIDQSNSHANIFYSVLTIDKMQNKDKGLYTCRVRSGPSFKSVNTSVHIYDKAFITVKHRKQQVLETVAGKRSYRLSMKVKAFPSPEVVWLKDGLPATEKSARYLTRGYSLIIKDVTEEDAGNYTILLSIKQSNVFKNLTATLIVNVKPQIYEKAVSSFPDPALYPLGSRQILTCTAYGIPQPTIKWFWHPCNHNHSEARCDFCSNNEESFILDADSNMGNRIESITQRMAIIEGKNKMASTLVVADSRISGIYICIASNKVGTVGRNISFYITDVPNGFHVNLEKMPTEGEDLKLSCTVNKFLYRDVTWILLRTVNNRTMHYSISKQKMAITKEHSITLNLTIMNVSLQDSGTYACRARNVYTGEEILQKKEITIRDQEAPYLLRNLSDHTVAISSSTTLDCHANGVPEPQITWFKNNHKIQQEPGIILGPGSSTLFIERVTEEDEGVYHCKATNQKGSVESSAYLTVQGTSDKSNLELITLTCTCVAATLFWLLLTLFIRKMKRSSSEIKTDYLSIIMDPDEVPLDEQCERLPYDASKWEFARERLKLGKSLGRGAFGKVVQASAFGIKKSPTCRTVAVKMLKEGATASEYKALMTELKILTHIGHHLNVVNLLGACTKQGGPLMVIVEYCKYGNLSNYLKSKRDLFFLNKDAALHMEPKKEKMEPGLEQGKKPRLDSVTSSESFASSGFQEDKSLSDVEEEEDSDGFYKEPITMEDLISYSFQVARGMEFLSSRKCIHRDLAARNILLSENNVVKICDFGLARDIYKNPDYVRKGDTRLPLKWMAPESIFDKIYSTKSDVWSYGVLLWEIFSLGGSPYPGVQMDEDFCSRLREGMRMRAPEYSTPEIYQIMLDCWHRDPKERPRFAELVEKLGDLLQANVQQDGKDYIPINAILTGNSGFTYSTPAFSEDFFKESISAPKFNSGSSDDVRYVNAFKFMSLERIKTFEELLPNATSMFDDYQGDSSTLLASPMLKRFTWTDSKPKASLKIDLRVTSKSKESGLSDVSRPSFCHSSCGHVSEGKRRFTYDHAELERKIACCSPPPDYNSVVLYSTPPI

| AUC [2] [ng·h/mL] | half-life [4] [min] | Vd [6] [L/kg] | clearance [7] [mL/min/kg] | IC50 [13] [µM] | Structure (SMILES) | further results |
| --- | --- | --- | --- | --- | --- | --- |
|  |  |  |  | > 0.3 | Cc1nnsc1C1=NNC(=O)/C1=C\c1c[nH]c2ccc(Cl)cc12 |  |
|  |  |  |  | > 1 | Cc1nnsc1C1=NNC(=O)/C1=C\c1c[nH]c2ccccc12 |  |

More lines, now with the values behind:

| Structure (SMILES) | AUC [2] [ng·h/mL] | half-life [4] [min] | Vd [6] [L/kg] | clearance [7] [mL/min/kg] | IC50 [13] [µM] | further results |
| --- | --- | --- | --- | --- | --- | --- |
| Cn1cc(/C=C2\C(=O)NN=C2c2nccs2)c2c(F)cccc21 | 3600 | 36 | 0.23 | 4.6 |  | bioavailability [1]: 3%; AUC [3]: 1040 ng·h/mL; half-life [5]: 72 min; Cmax [8]: 139 ng/mL |
| CCOc1cccc2c1c(/C=C1\C(=O)NN=C1c1snnc1C)cn2C | 1140 | 54 | 1.1 | 15 |  | IC50 [9]: > 3 µM; IC50 [10]: 0.016 µM; IC50 [11]: 0.463 µM; IC50 (Angiopoietin-1 receptor): > 10 µM; IC50 [12]: 0.036 µM |
| COc1cccc2c1c(/C=C1\C(=O)NN=C1c1snnc1C)cn2C | 192 | 18 | 2.2 | 87 |  |  |
| Cc1nnsc1C1=NNC(=O)/C1=C\c1cn(C)c2ccc(F)cc12 |  | 30 | 1.1 | 25 |  | F (Rattus norvegicus [14]): 29%; AUC (Rattus norvegicus [15]): 727 ng·h/mL; AUC (Rattus norvegicus [16]): 507 ng·h/mL; half-life [5]: 84 min; Cmax [8]: 356 ng/mL |
| Cc1nnsc1C1=NNC(=O)/C1=C\c1cn(C)c2ccc(C#N)cc12 |  |  |  |  | > 0.3 |  |
